Laboratory results: patent US11414374B2, “Crystalline forms of vilanterol trifenatate and processes for their preparation” (Hovione Scientia Limited, priority 2017, dated 2022)
Converted amounts (≈) assume the structure as drawn. Like-named read-outs stand apart in the source and are kept apart here. Blank lines part the entries; values can stand above or below the compound they belong to.

Key:
Type in all cases: physicochemical
[1] = DSC - differential scanning calorimetry; conditions: for DSC (onset) endo. degradation: endothermic event: degradation; for DSC (onset) endo. melting: endothermic event: melting; for DSC (onset) endo. solvent loss: endothermic event: solvent loss
Procedure: The analysis was carried out using a DSC Q200 TA instruments equipped with a refrigerator cooling system (RCS40) and autosampler. The sample was weighed in an aluminum hermetic pan with pinhole. The analysis was performed heating the sample from 25° C. to 350° C. at 10° C./min.

[2] = Stability test (sealed vial 18 h), form by XRPD; conditions: resulting form
[3] = Stability test (exposed sample 16 h), form by XRPD; conditions: resulting form
[4] = TGA / TGA-EGA thermogravimetric analysis with evolved gas analysis; conditions: for TGA overall weight loss: overall loss of the named solvent(s); for EGA: evolved solvent identified
Procedure: The analysis was carried out using the Mettler Toledo TGA/DSC1. The sample was weighed in an aluminum pan hermetically sealed with an aluminum pierced cover. The analysis was performed heating the sample from 25° C. to 320° C. at 10° C./min. TGA-FTIR coupled with Thermo Nicoled is 10 spectometer. The analysis was carried out using the mettler toledo TGA/DSC1. The sample was weighed in an aluminum pan hermetically sealed with an aluminum pierced cover. The analysis was performed heating the sample from 25° C. to 320° C. at 10° C./min. The evolved gas is compared with ft-ir spectra database for identification.

[5] = Storage stability of exposed powder at 25° C. and 60% RH for seven days, compared by XRPD; conditions: 60% RH and 25° C. for 7 days, exposed powder
Procedure: Approximately 30 mg of exposed powder of comparative form 1 and new forms II and III, respectively, were stored at 25′C and 60% RH for seven days. Each powder was then analyzed by XRPD and its diffraction pattern was compared with that of untreated sample.

[6] = Visual solubility in differing solvents (European Pharmacopeia 6.0 section 5.11); conditions: for visual solubility in water: water at 75° C.; for solubility at 15 min: 25 °C, organic solvent or mixture, thermodynamic from solid
Procedure: Visual solubility of certain forms (compounds) in differing solvents was assessed according to the procedure described in the European Pharmacopeia 6.0 section 5.11. p. The compound was shaken vigorously for 1 min and placed in a constant temperature device for 15 min at 25.0±0.5° C. If the compound was not completely dissolved, the shaking was repeated for 1 min and the tube placed in a constant temperature device for 15 min. 50 mg of compound was weighed in a stoppered tube, 0.05 mL of the solvent added and the Dissolving Procedure (see above) followed. If the compound was completely dissolved, it is very soluble. If the compound was not completely dissolved, a further 0.45 mL of the solvent was added and the Dissolving Procedure (see above) followed. […] If the compound was still not completely dissolved, still further 1.0 mL of the solvent was added and the Dissolving Procedure (see above) followed. If the compound was completely dissolved, it is soluble. If the compound was still not completely dissolved, another 3.5 mL of the solvent was added and the Dissolving Procedure (see above) followed. […] If the compound was still not completely dissolved, the compound is slightly soluble or very slightly soluble. In this case, and the suspension was heated up to the boiling point (max 80° C.) under stirring to verify the solubility at high temperature. The hot solution was afterwards cooled to room temperature to observe whether the compound precipitates. If the compound at room temperature was completely dissolved, it is soluble at high temperature. [table]

[7] = Dynamic vapor sorption (DVS) analysis / hygroscopicity (EP 7.0 classification); conditions: for hygroscopicity classification according to the European Pharmacopoeia (EP, version 7.0) / mass increase by dynamic vapor sorption analysis (hygroscopicity): 80% RH and 25° C.; for mass increase by dynamic vapor sorption analysis (hygroscopicity): first sorption cycle, relative to 40% RH; for Change In Mass (%) Desorption / Change In Mass (%) Hysteresis / Change In Mass (%) Sorption: DVS, 25° C.; for stability / XRPD pattern after DVS analysis: compared with untreated sample
Procedure: The hygroscopicity value is directly obtained from the sorption row at 80% RH, cycle 1.
Hygroscopicity of a sample of each of new form II and comparative form I was determined using the protocol provided below in conditions of 80% RH and 25° C.
The sample was subjected to DVS measuring using SMS-DVS intrinsic. The kinetic moisture sorption measurement was performed at 25° C. and in a RH % range described in the following: • From 40% RH to 90% RH • Form 90% RH to 0% RH • From 0% RH to 90% RH • From 90% RH to 0% RH
The sample was analyzed by XRPD after the analysis.
The hygroscopicity was calculated using the following equation: % Weight Change=[(W2−W1)/W1]*100 W1: weight of sample at the start of the experiment (25° C. and 40% RH) W2: weight of sample at 25° C. and 80% RH in the first absorption cycle

[8] = Micronization in fluid energy jet mill: particle size distribution and XRPD of product; conditions: for XRPD of micronized product versus starting material: after fluid energy jet milling
Text: Vilanterol trifenatate form II is fed to a fluid energy jet mill at 10-100 g/h, operated with N2 at a pressure of 1 to 8 bar for the venturi and a pressure of 1 to 8 bar for the ring.

SMILES: OCc1cc([C@@H](O)CNCCCCCCOCCOCc2c(Cl)cccc2Cl)ccc1O [form XIII, vilanterol trifenatate]
- DSC (onset) endo. degradation ([1]; listed as Form 13): endo. 189 °C
- DSC (onset) endo. melting ([1]; listed as Form 13): endo. 105 °C
- DSC (onset) exo. recrystallization ([1]; exothermic event: recrystallization): exo. 93 °C
- Stability test (sealed vial 18 h) ([2]; listed as Form 13): Form 12 (almost
- Stability test (exposed sample 16 h) ([3]; listed as Form 13): Form 12
- TGA overall weight loss ([4]; listed as Form 13): One loss of 34% w/w

SMILES: OCc1cc([C@@H](O)CNCCCCCCOCCOCc2c(Cl)cccc2Cl)ccc1O [form V, vilanterol trifenatate]
- DSC (onset) endo. Form 1 melting ([1]; endothermic event: Form 1 melting, listed as Form 5): endo. 134 °C Form 1
- DSC (onset) endo. degradation ([1]; listed as Form 5): endo. 188 °C degradation
- DSC (onset) endo. solvent loss ([1]; listed as Form 5): endo. 55-100 °C solvent loss
- Stability test (sealed vial 18 h) ([2]; listed as Form 5): Strong crystanllinity
- Stability test (exposed sample 16 h) ([3]; listed as Form 5): Form 2
- EGA ([4]; listed as Form 5): Methylcyclohexane

SMILES: OCc1cc([C@@H](O)CNCCCCCCOCCOCc2c(Cl)cccc2Cl)ccc1O [form III, vilanterol trifenatate]
- modifications in XRPD pattern after storage (structural stability) [5]: No significant modifications in XRPD pattern
- visual solubility in tetrahydrofuran (THF) ([6]; THF at 25° C.): sparingly soluble (another 3.5 mL of the solvent was added and the Dissolving Procedure (see above) followed. If the compound was completely dissolved, it is sparingly soluble.)
- visual solubility in water [6]: insoluble
- hygroscopicity classification according to the European Pharmacopoeia (EP, version 7.0) [7]: slightly hygroscopic
- mass increase by dynamic vapor sorption analysis (hygroscopicity) [7]: 1.1%
- Change In Mass (%) Desorption ([7]; Cycle 1, target RH 0.0%): −0.017%
- Change In Mass (%) Desorption ([7]; Cycle 1, target RH 10.0%): 0.002%
- Change In Mass (%) Desorption ([7]; Cycle 1, target RH 20.0%): 0.015%
- Change In Mass (%) Desorption ([7]; Cycle 1, target RH 30.0%): 0.024%
- Change In Mass (%) Desorption ([7]; Cycle 1, target RH 40.0%): 0.035%
- Change In Mass (%) Hysteresis ([7]; Cycle 1, target RH 40.0%): 0.035%
- Change In Mass (%) Sorption ([7]; Cycle 1, target RH 40.0%): 0.000%
- Change In Mass (%) Desorption ([7]; Cycle 1, target RH 50.0%): 0.280%
- Change In Mass (%) Hysteresis ([7]; Cycle 1, target RH 50.0%): 0.271%
- Change In Mass (%) Sorption ([7]; Cycle 1, target RH 50.0%): 0.008%
- Change In Mass (%) Desorption ([7]; Cycle 1, target RH 60.0%): 0.421%
- Change In Mass (%) Hysteresis ([7]; Cycle 1, target RH 60.0%): 0.399%
- Change In Mass (%) Sorption ([7]; Cycle 1, target RH 60.0%): 0.022%
- Change In Mass (%) Desorption ([7]; Cycle 1, target RH 70.0%): 0.567%
- Change In Mass (%) Hysteresis ([7]; Cycle 1, target RH 70.0%): 0.530%
- Change In Mass (%) Sorption ([7]; Cycle 1, target RH 70.0%): 0.037%
- Change In Mass (%) Desorption ([7]; Cycle 1, target RH 80.0%): 1.144%
- Change In Mass (%) Hysteresis ([7]; Cycle 1, target RH 80.0%): 0.061%
- Change In Mass (%) Sorption ([7]; Cycle 1, target RH 80.0%): 1.083%
- Change In Mass (%) Desorption ([7]; Cycle 1, target RH 90.0%): 1.857%
- Change In Mass (%) Sorption ([7]; Cycle 1, target RH 90.0%): 1.857%
- Change In Mass (%) Sorption ([7]; Cycle 2, target RH 0.0%): −0.017%
- Change In Mass (%) Sorption ([7]; Cycle 2, target RH 10.0%): −0.003%
- Change In Mass (%) Sorption ([7]; Cycle 2, target RH 20.0%): 0.008%
- Change In Mass (%) Sorption ([7]; Cycle 2, target RH 30.0%): 0.016%
- Change In Mass (%) Sorption ([7]; Cycle 2, target RH 40.0%): 0.025%
- Change In Mass (%) Sorption ([7]; Cycle 2, target RH 50.0%): 0.033%
- Change In Mass (%) Sorption ([7]; Cycle 2, target RH 60.0%): 0.041%
- Change In Mass (%) Sorption ([7]; Cycle 2, target RH 70.0%): 0.056%
- Change In Mass (%) Sorption ([7]; Cycle 2, target RH 80.0%): 1.111%
- Change In Mass (%) Sorption ([7]; Cycle 2, target RH 90.0%): 1.952%
- stability / XRPD pattern after DVS analysis [7]: no significant modifications
- XRPD of micronized product versus starting material [8]: identical to the one of the starting material
- particle size distribution Dv90 after micronization ([8]; fluid energy jet mill, N2): below 10 μm

The next lines start with results.

- solubility at 15 min ([6]; ethanol, ethanol at 25° C., read-out: visual solubility in ethanol): 10 to 33 mg/mL (≈ 20.6 to 67.8 mM)
- solubility at 15 min ([6]; methanol, methanol at 25° C., read-out: visual solubility in methanol): 33 to 100 mg/mL (≈ 67.8 to 206 mM)
- visual solubility in water [6]: insoluble
- hygroscopicity classification according to the European Pharmacopoeia (EP, version 7.0) [7]: non-hygroscopic
- mass increase by dynamic vapor sorption analysis (hygroscopicity) [7]: 0.19%
- stability / XRPD pattern after DVS analysis [7]: showed stability after DVS analysis
- particle size distribution Dv50 after micronization ([8]; fluid energy jet mill, N2): 4.2 μm
- particle size distribution Dv90 after micronization ([8]; fluid energy jet mill, N2): 9.6 μm
SMILES: OCc1cc([C@@H](O)CNCCCCCCOCCOCc2c(Cl)cccc2Cl)ccc1O [form I, 4-((1R)-2-((6-(2-((2,6-Dichlorophenyl)methoxy)ethoxy)hexyl)amino)-1-hydroxyethyl)-2-(hydroxymethyl)phenol triphenylacetate, reference compound]
- modifications in XRPD pattern after storage (structural stability) [5]: No significant modifications in XRPD pattern
- visual solubility in 1,4-dioxane ([6]; 1,4-dioxane at 25° C.): freely soluble (a further 0.45 mL of the solvent was added and the Dissolving Procedure (see above) followed. If the compound was completely dissolved, it is freely soluble.)
- XRPD of micronized product versus starting material [8]: identical to that of the starting material

- DSC (onset) endo. solvent loss + melting ([1]; endothermic event: solvent loss + melting (Form 6: + Form 2 melting; Form 14: + Form 3 melting), listed as Form 14): endo. 80 °C solvent
- DSC (onset) endo. solvent loss ([1]; listed as Form 14): endo. 58 °C solvent loss
- Stability test (sealed vial 18 h) ([2]; listed as Form 14): Form 3 (almost
- Stability test (exposed sample 16 h) ([3]; listed as Form 14): Form 3
- EGA ([4]; listed as Form 14): Methylcyclohexane
- TGA overall weight loss ([4]; listed as Form 14): loss of 26% w/w
SMILES: OCc1cc([C@@H](O)CNCCCCCCOCCOCc2c(Cl)cccc2Cl)ccc1O [form XIV, vilanterol trifenatate]

- DSC (onset) endo. degradation ([1]; listed as Form 4): endo. 189 °C degradation
- DSC (onset) endo. melting ([1]; listed as Form 4): endo. 76 °C melting
- Stability test (sealed vial 18 h) ([2]; listed as Form 4): Form 12
- Stability test (exposed sample 16 h) ([3]; listed as Form 4): Form 2
- EGA ([4]; listed as Form 4): Cyclohexane
- TGA overall weight loss ([4]; listed as Form 4): overall loss of 40% w/w/
SMILES: OCc1cc([C@@H](O)CNCCCCCCOCCOCc2c(Cl)cccc2Cl)ccc1O [form IV, vilanterol trifenatate]
